The data set in a line: Pd(II)-catalysed intramolecular ortho C(sp2)-H olefination (oxidative Heck-type aryl-alkenyl C-C bond) of peptide aryl/benzyl/thienyl sulfonamides with pendant acrylate or unactivated terminal alkene; Pd(OAc)2 10 mol%, AgOAc 2.0 equiv. As to conditions: 1,2-dichloroethane (DCE), 50.0 mM, 80.0 °C, 24.0 h.

For `COC(=O)[C@@H]1Cc2ccc(cc2)OCC=Cc2ccccc2S(=O)(=O)N[C@@H](C(C)(C)C)C(=O)NCC(=O)N2CCC[C@H]2C(=O)N1` [PhSO2-tLeu-Gly-Pro-Tyr(O-allyl)-OMe], under “from C=CCOc1ccc(C[C@H](NC(=O)[C@@H]2CCCN2C(=O)CNC(=O)[C@@H](NS(=O)(=O)c2ccccc2)C(C)(C)C)C(=O)OC)cc1, 23-membered ring”, the ring closure, isolated yield turned out to be 61%.
`COC(=O)[C@@H]1COC(=O)C=Cc2ccsc2S(=O)(=O)N[C@@H](C(C)(C)C)C(=O)NCC(=O)N2CCC[C@H]2C(=O)N1` [(thiophene-2-SO2)-tLeu-Gly-Pro-Ser(O-acryloyl)-OMe]: the ring closure, isolated yield (from C=CC(=O)OC[C@H](NC(=O)[C@@H]1CCCN1C(=O)CNC(=O)[C@@H](NS(=O)(=O)c1cccs1)C(C)(C)C)C(=O)OC, 19-membered ring) came to 59%.
For `COC(=O)[C@@H]1COC(=O)C=Cc2ccccc2CS(=O)(=O)N[C@@H](C(C)(C)C)C(=O)NCC(=O)NCC(=O)NCC(=O)N1` [PhCH2SO2-tLeu-Gly-Gly-Gly-Ser(O-acryloyl)-OMe], under “from C=CC(=O)OC[C@H](NC(=O)CNC(=O)CNC(=O)CNC(=O)[C@@H](NS(=O)(=O)Cc1ccccc1)C(C)(C)C)C(=O)OC, 23-membered ring”, the ring closure, isolated yield is 34%.
Regarding `COC(=O)[C@@H]1COC(=O)C=Cc2ccccc2CS(=O)(=O)N[C@@H](C(C)(C)C)C(=O)NCC(=O)N1` [PhCH2SO2-tLeu-Gly-Ser(O-acryloyl)-OMe], the ring closure, isolated yield (from C=CC(=O)OC[C@H](NC(=O)CNC(=O)[C@@H](NS(=O)(=O)Cc1ccccc1)C(C)(C)C)C(=O)OC, 17-membered ring) was 58%.
With `COC(=O)[C@@H]1COC(=O)CCC=Cc2ccccc2CS(=O)(=O)N[C@@H](C(C)(C)C)C(=O)NCC(=O)N1` [PhCH2SO2-tLeu-Gly-Ser(O-pent-4-enoyl)-OMe], under “from C=CCCC(=O)OC[C@H](NC(=O)CNC(=O)[C@@H](NS(=O)(=O)Cc1ccccc1)C(C)(C)C)C(=O)OC, 19-membered ring”, the ring closure, isolated yield came out at 53%.
Turning to `COC(=O)[C@@H]1COC(=O)C=Cc2ccccc2CS(=O)(=O)N[C@@H](C(C)(C)C)C(=O)N1` [PhCH2SO2-tLeu-Ser(O-acryloyl)-OMe], under “from C=CC(=O)OC[C@H](NC(=O)[C@@H](NS(=O)(=O)Cc1ccccc1)C(C)(C)C)C(=O)OC, 14-membered ring”, the ring closure, isolated yield amounted to 52%.
Take `COC(=O)[C@@H]1COC(=O)C=Cc2ccccc2CS(=O)(=O)N[C@@H](C(C)(C)C)C(=O)NCC(=O)NCC(=O)N1` [PhCH2SO2-tLeu-Gly-Gly-Ser(O-acryloyl)-OMe]: the ring closure, isolated yield (from C=CC(=O)OC[C@H](NC(=O)CNC(=O)CNC(=O)[C@@H](NS(=O)(=O)Cc1ccccc1)C(C)(C)C)C(=O)OC, 20-membered ring) came to 45%.
For `COC(=O)[C@@H]1Cc2ccc(cc2)OC(=O)C=Cc2ccccc2CS(=O)(=O)N[C@@H](C(C)(C)C)C(=O)NCC(=O)N2CCC[C@H]2C(=O)N1` [PhCH2SO2-tLeu-Gly-Pro-Tyr(O-acryloyl)-OMe], under “from C=CC(=O)Oc1ccc(C[C@H](NC(=O)[C@@H]2CCCN2C(=O)CNC(=O)[C@@H](NS(=O)(=O)Cc2ccccc2)C(C)(C)C)C(=O)OC)cc1, 24-membered ring”, the ring closure, isolated yield was 72%.
Consider `COC(=O)[C@@H]1COC(=O)C=Cc2ccsc2S(=O)(=O)N[C@@H](COC(C)(C)C)C(=O)NCC(=O)N2CCC[C@H]2C(=O)N1` [(thiophene-2-SO2)-Ser(tBu)-Gly-Pro-Ser(O-acryloyl)-OMe], for which the ring closure, isolated yield (from C=CC(=O)OC[C@H](NC(=O)[C@@H]1CCCN1C(=O)CNC(=O)[C@H](COC(C)(C)C)NS(=O)(=O)c1cccs1)C(=O)OC, 19-membered ring) is 53%.
Turning to `COC(=O)[C@@H]1COC(=O)C=Cc2ccccc2S(=O)(=O)N[C@@H](C(C)(C)C)C(=O)NCC(=O)N2CCC[C@H]2C(=O)N1` [PhSO2-tLeu-Gly-Pro-Ser(O-acryloyl)-OMe], the ring closure, isolated yield (from C=CC(=O)OC[C@H](NC(=O)[C@@H]1CCCN1C(=O)CNC(=O)[C@@H](NS(=O)(=O)c1ccccc1)C(C)(C)C)C(=O)OC, 19-membered ring) is 67%.

The values are drawn from article PMC6107497.
